Series [1] deals with collagen and epinephrine-induced pulmonary thrombosis. Nature of the series: Acute pulmonary thrombosis induced by collagen and epinephrine. It is filed as in vivo, mouse. To be noted: for Mortality %: then collagen + epinephrine, mice; for Scored thrombus formation (Thrombi), lung: graded as thrombi per 25 mm^2 lung field. As to the method: Mice were separated into several groups after being fasted overnight (10 animals each). CSL was dissolved in DMSO and given intravenously to each mouse. After 1 h, the animals received an injection of collagen and epinephrine mixture (500 μg/kg each) to induce acute thrombosis. Each mouse was closely observed for 15 min to see if it had recovered from the acute thrombosis challenge, had been paralyzed, or had passed away. H&E-stained lung tissue slices from five mice were randomly selected for the histologic investigation to determine the extent of pulmonary thrombus development. The number of arteries greater than 20 μm in diameter with any detectable thrombus was counted in each of the five view fields randomly selected from the left lobe in each section (one section per mouse). Twenty-five fields for each group were compared as a result. A total of 60–80 vessels in each segment were imaged using the system (Leica, Germany). The results were graded as the number of thrombi per 25 mm^2 lung field as previously described.

The subject of series [2] is FeCl3-induced carotid artery thrombosis. Nature of the series: FeCl3-induced carotid artery thrombosis model. To be noted: mice. It is filed as in vivo, mouse. As to the method: A mouse model of FeCl3-induced thrombosis was created and used. Male C57BL/6 mice were starved for the entire night before receiving intravenous injections of the relevant drug in 0.2 mL of DMSO and were allowed to sleep. The carotid artery of the animal was exposed. The adventitial surface was covered with a cotton thread (200 μm in diameter) soaked in FeCl3 solution (0.25 M) for 5 min. The wound was flushed with saline solution once the thread had been removed. […] We measured the size and rate of thrombus formation, and we graded our results as follows: no thrombus or small thrombus (75–50 μm), medium thrombus (150–100 μm), massive thrombus (300–200 μm), and more than three thrombi. It was also noted how long it took for an extensive thrombus to obstruct the carotid artery following endothelial damage caused by FeCl3.

For series [3], the system named is human umbilical vein endothelial cells (HUVECs). Nature of the series: NO and ET-1 production, ELISA. It is filed as cell-based. To be noted: ADP or U46619 treated. For orientation: In an ELISA, binding on a coated surface is turned into a signal by an enzyme label.
Another series deals with HUVECs. Nature of the series: MTT cell viability assay. It is filed as cell-based, human. To be noted: CSL 5–50 μM. As to the method: First, the potential cytotoxicity of […] on HUVECs was assessed using the 3-(4,5-dimethylthiazol-2-yl)-2,5-diphenyltetrazolium bromide (MTT) assay. […] The activated partial thromboplastin time (aPTT) and prothrombin time (PT), two coagulation parameters altered by CSL in vitro, were assessed first. We used the direct FXa inhibitor rivaroxaban as a positive control for our experiments. […] In the aPTT experiments, rivaroxaban at 8.38 μM and CSL at 7.23 μM, respectively, doubled the clotting time. Each mouse group (n = 5) received intravenous injections of CSL for 4 consecutive days to validate the in vitro results in an ex vivo experiment. […] In the ex vivo aPTT assays, treatment with CSL at 0.25 mg/kg and rivaroxaban at 0.29 mg/kg, respectively, doubled the clotting time. The average blood volume was determined to be 2 mL based on an estimated circulating blood volume for mice of 72 mL/kg and an average weight of 27 g for each animal used in this investigation. As a result, the estimated concentration of CSL in the peripheral blood after each injection ([…]) was 2.5, 5, 10, or 20 μM, respectively.
A 3-(4,5-dimethylthiazol-2-yl)-2,5-diphenyltetrazoliumbromide (MTT) assay was used to measure cell viability. […] The amount of formazan salt formed was measured spectrophotometrically at 540 nm.
(Tetrazolium dyes change colour on reduction, which living cells bring about.)

Another series deals with Trypsin. Nature of the series: Inhibitory constant, chromogenic substrate assay. It is filed as biochemical, human. As to the method: Ki values were calculated based on chromogenic substrate experiments. CSL was employed in each assay at a minimum of seven concentrations in duplicate to obtain an inhibition curve. A total of 50 μL of substrate was combined with 25 μL of each chemical solution, inhibitor solution, or blank buffer. Before the plate was allocated into the Labsystems IEMS microtiter plate reader (Cergy Pontoise, France), 25 μL of the enzyme solution was mixed. The plate was allowed for 1 h at 37 °C before analysis. We continuously observed the formation of p-nitroaniline produced when the substrate was hydrolyzed using spectrophotometry at 405 nm. The maximum initial reaction rates were computed as the millioptical density per minute. A Dixon plot of 1/Vmax versus inhibitor concentration was used to fit the curve and determine the Ki values.

pKi: −log10 of the molar value. Marks after values point to notes of the source that are not given here.

As usually defined, the pKi is −log10 of the Ki, conventionally taken in molar units.

As to `COc1cc(-c2cc(=O)c3c(O)c(OC)c(OC)cc3o2)ccc1O` [CSL, 4,5-dihydroxy-3,6,7-trimethoxyflavone], the Mortality % is listed as 85 ^# % in series [1] (0.13 mg/kg intravenous), 80 ^# % in series [1] (0.26 mg/kg intravenous) and 60 ^# % in series [1] (0.51 mg/kg intravenous). Moreover, the “Scored thrombus formation (Thrombi), lung” value in series [1] (0.13 mg/kg intravenous) was determined as 3.5 ± 0.1; in series [1] (0.26 mg/kg intravenous), 2.5 ± 0.1; in series [1] (0.51 mg/kg intravenous), 1.8 ± 0.2. In addition, the values for the Scored thrombus formation in series [2] (0.13 mg/kg intravenous), in series [2] (0.26 mg/kg intravenous) and in series [2] (0.51 mg/kg intravenous) were 3.7 ± 0.2, 2.7 ± 0.1 and 1.8 ± 0.1, respectively. The “Time to Large Thrombus Formation” value came to 13.1 ± 1.1 min in series [2] (0.13 mg/kg intravenous), 27.2 ± 2.1 min in series [2] (0.26 mg/kg intravenous) and 51.4 ± 3.1 min in series [2] (0.51 mg/kg intravenous). For the same compound, the NO secretion result in series [3] was “returned the decreased NO secretion caused by ADP or U46619 to their baseline levels”. Moreover, in series [3], the “production of ET-1” value is “returned the increased production of ET-1”. Also, the “cell viability (MTT)” value in the series on HUVECs was “no change in cell viability”. Besides, on Trypsin, the pKi was less than 3.52. In addition, the “Ratio = Ki enzyme/Ki Factor Xa” value with Trypsin is recorded as greater than 100.

Values taken from publication PMC10145360, “Antiplatelet Aggregation Properties of Cirsilineol: A Novel Inhibitor of Blood Coagulation Factor Xa” (Pharmaceuticals, 2023).
